Experimental data reported in BindingDB's records for patent US20260069571 (Redx Pharma, 2026).

Legend:
[1] = target: T1, Discoidin domain-containing receptor 2 (Homo sapiens, UniProt Q16832); assay: DDR1 and DDR2 Biochemical Assay
T1 sequence (Q16832 whole entry): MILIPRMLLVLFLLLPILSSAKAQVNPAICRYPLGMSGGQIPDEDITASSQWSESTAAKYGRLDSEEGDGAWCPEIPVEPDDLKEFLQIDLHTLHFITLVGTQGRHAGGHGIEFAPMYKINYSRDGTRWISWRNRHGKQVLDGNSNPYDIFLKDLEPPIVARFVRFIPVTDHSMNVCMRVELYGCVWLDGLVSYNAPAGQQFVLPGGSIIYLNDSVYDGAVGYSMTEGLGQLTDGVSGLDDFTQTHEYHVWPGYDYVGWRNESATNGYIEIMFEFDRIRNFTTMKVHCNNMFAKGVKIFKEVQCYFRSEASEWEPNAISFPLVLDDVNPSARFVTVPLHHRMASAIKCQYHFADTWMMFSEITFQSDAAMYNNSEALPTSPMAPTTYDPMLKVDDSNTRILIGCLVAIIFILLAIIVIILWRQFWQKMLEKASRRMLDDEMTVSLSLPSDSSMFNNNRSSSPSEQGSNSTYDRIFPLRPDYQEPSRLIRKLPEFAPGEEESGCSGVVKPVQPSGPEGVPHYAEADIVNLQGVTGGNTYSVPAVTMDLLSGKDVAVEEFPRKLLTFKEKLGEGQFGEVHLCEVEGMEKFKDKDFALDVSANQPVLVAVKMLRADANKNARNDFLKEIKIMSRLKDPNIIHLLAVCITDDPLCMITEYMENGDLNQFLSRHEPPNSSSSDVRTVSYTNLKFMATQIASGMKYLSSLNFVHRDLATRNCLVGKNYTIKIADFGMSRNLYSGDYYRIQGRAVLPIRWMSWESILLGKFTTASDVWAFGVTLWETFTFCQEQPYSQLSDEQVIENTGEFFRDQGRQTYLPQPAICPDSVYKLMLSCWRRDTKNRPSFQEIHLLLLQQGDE
Experimental: (§1) The capacity of compounds to bind to DDR1 and DDR2 was quantified using a LanthaScreen Eu Kinase Binding Assay. Recombinant human DDR1 (2.5 nM; aa440-876 containing a GST tag) and DDR2 (1.75 nM; aa427-855 containing a GST tag) were diluted in assay buffer (50 mM HEPES pH7.3, 10 mM MgCl2, 1 mM EGTA and 0.01% Tween) with various concentrations of compound in a 384-well plate and a volume of 5 uL. After a 30-minute incubation at room temperature, 2.5 uL of Eu-anti GST antibody (diluted to 1 nM in assay buffer) plus Kinase Tracer 178 (diluted in assay buffer to 5 nM for DDR1 and 10 nM for DDR2) were added to the plate. Following 60-minute incubation at room temperature, time-resolved fluorescence was measured on a BMG Labtech PHERAstar plate reader. DMSO (1%) and reference compound (1 μM) were used to generate the Max and Min assay signals, respectively. Data was analysed using a four-parameter logistic model to calculate IC50 values, with at least two independent replicates were performed for each compound.

[2] = target: Epithelial discoidin domain-containing receptor 1 (Homo sapiens, UniProt Q08345); assay: DDR1 and DDR2 Biochemical Assay
Experimental: as §1

Chain of Epithelial discoidin domain-containing receptor 1 (Q08345 whole entry, the tested form may be a part): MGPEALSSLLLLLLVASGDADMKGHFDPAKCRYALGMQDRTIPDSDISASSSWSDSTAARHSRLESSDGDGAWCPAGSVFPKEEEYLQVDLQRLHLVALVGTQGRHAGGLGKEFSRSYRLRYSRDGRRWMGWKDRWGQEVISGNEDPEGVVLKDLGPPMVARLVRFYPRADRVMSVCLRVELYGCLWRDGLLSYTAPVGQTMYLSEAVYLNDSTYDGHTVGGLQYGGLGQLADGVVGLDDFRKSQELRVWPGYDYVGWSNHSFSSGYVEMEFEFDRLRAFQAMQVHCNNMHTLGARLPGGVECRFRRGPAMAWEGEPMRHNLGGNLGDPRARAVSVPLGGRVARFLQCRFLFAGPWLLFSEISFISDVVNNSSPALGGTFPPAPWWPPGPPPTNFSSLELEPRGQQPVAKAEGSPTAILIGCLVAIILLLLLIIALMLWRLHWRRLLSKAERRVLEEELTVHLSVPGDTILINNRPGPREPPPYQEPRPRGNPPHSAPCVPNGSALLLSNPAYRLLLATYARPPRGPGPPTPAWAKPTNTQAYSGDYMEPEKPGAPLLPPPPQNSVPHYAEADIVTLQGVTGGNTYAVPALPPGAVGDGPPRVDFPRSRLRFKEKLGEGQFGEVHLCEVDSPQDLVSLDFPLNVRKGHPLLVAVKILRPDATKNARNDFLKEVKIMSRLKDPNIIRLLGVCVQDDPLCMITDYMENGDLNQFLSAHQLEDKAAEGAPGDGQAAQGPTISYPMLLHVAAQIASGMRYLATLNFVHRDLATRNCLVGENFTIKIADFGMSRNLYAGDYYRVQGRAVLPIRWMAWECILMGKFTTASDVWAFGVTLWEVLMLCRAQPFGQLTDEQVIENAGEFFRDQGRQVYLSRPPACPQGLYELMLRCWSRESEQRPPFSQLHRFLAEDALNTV

With `Cc1n[nH]c2cc(Nc3cccc4c3C(=O)N(CC(=O)NCC(F)(F)F)C4)ccc12` [US20260069571, Example 6] the IC50 [1] was under 10 nM and the IC50 [2] was under 10 nM.

`Cn1ncc2cc(Nc3cccc4c3C(=O)N(CC(=O)N3CCCC(C(F)(F)F)C3)C4)ccc21` (stereo not drawn) [US20260069571, Example 12] gave an IC50 [2] of under 10 nM.
